These results are taken from US5770618A (Nastech Pharmaceutical Company, Inc., priority 1996, dated 1998).

Counter-ions that a name gives are not always drawn.

The conditions of data set [1]: cited from earlier work.
Data set [2] is described as follows: physchem.
Data set [3] can be described thus: physchem. The source holds these as a separate data set.
From the text: The final pH values of the solutions ranged from about 4 to about 6.

Turning to `CN1CCC[C@@H]1CCO[C@](C)(c1ccccc1)c1ccc(Cl)cc1` [clemastine], the “solubility in pharmaceutically acceptable solvents” value in data set [1] (as is well known in the art, clemastine and its salts) is recorded as “sparingly soluble”.

On to `CN1CCC[C@@H]1CCO[C@](C)(c1ccccc1)c1ccc(Cl)cc1` [Clemastine Fumarate, clemastine fumarate], for which, in data set [1] (Remington, 19th edition, 1995), the solubility in alcohol result is listed as “only slightly soluble”. The “solubility in water, chloroform or ether” value in data set [1] (Remington, 19th edition, 1995) is on record as “very slightly soluble”. The solubility at 24 h in “physchem [2]” (ammonium acetate 0.1 m, pH 5.4, Clemastine Fumarate Solubility) was 6.1 mg/mL; in the data set “physchem [2]” (ammonium acetate 0.25 m, pH 5.5, Clemastine Fumarate Solubility), 12.2 mg/mL; in “physchem [2]” (ammonium acetate 0.5 m, pH 5.6, Clemastine Fumarate Solubility), 25.7 mg/mL; in “physchem [2]” (ammonium acetate 1.0 m, pH 5.7, Clemastine Fumarate Solubility), 43.3 mg/mL; in the data set “physchem [2]” (sodium acetate 0.1 m, pH 5.4, Clemastine Fumarate Solubility), 6.6 mg/mL; in the data set “physchem [2]” (sodium acetate 0.25 m, pH 5.5, Clemastine Fumarate Solubility) it was 14.3 mg/mL. The solubility at 24 h in “physchem [2]” (sodium acetate 0.5 m, pH 5.6, Clemastine Fumarate Solubility) turned out to be 24 mg/mL; in “physchem [2]” (sodium acetate 1.0 m, pH 5.7, Clemastine Fumarate Solubility), 41.2 mg/mL; in the data set “physchem [2]” (sodium ascorbate 0.1 m, pH 5.2, Clemastine Fumarate Solubility), 5.5 mg/mL; in “physchem [2]” (sodium ascorbate 0.25 m, pH 5.2, Clemastine Fumarate Solubility), 7.5 mg/mL; in “physchem [2]” (sodium ascorbate 0.5 m, pH 5.2, Clemastine Fumarate Solubility) it was 16.7 mg/mL; in “physchem [2]” (sodium ascorbate 1.0 m, pH 5.3, Clemastine Fumarate Solubility), 30.6 mg/mL. Also, the solubility at 24 h in “physchem [2]” (sodium citrate 0.15 m, pH 5.6, Clemastine Fumarate Solubility) was 28.6 mg/mL; in “physchem [2]” (sodium citrate 0.25 m, pH 5.7, Clemastine Fumarate Solubility), 40 mg/mL; in “physchem [2]” (sodium fumarate 0.25 m, pH 6.2, Clemastine Fumarate Solubility), 44.2 mg/mL; in the data set “physchem [2]” (sodium fumarate 0.5 m, pH 6.4, Clemastine Fumarate Solubility), 82.1 mg/mL; in “physchem [2]” (sodium glycinate 0.25 m, pH 9.1, Clemastine Fumarate Solubility), 15.5 mg/mL; in the data set “physchem [2]” (sodium glycinate 0.5 m, pH 9.4, Clemastine Fumarate Solubility), 26.6 mg/mL. Besides, the solubility at 24 h was 13.8 mg/mL in “physchem [2]” (sodium malate 0.1 m, Clemastine Fumarate Solubility); 16.9 mg/mL in “physchem [2]” (sodium malate 0.25 m, pH 6, Clemastine Fumarate Solubility); 25.5 mg/mL in “physchem [2]” (sodium malate 0.5 m, pH 5.5, Clemastine Fumarate Solubility); 29.3 mg/mL in the data set “physchem [2]” (sodium malate 1.0 m, pH 5.7, Clemastine Fumarate Solubility); 41.4 mg/mL in the data set “physchem [2]” (sodium maleate 0.25 m, pH 6, Clemastine Fumarate Solubility); 65 mg/mL in the data set “physchem [2]” (sodium maleate 0.5 m, pH 6.5, Clemastine Fumarate Solubility). Moreover, the solubility at 24 h in “physchem [2]” (sodium maleate 1.0 m, pH 6.8, Clemastine Fumarate Solubility) was found to be 153 mg/mL; in the data set “physchem [2]” (sodium succinate 0.25 m, pH 6.1, Clemastine Fumarate Solubility) it was 15.4 mg/mL; in “physchem [2]” (sodium succinate 0.5 m, pH 6.3, Clemastine Fumarate Solubility), 18.2 mg/mL; in the data set “physchem [2]” (sodium tartarate 0.5 m, pH 5.1, Clemastine Fumarate Solubility), 13.3 mg/mL. The solubility amounted to 0.6 mg/mL in “physchem [3]” (acetate buffer 0.5 m, pH 4.1); 3.8 mg/mL in the data set “physchem [3]” (acetate buffer 0.5 m, pH 5); 11.2 mg/mL in the data set “physchem [3]” (acetate buffer 0.5 m, pH 5.3); 18.2 mg/mL in “physchem [3]” (acetate buffer 0.5 m, pH 5.5); 24 mg/mL in the data set “physchem [3]” (acetate buffer 0.5 m, pH 5.7); 2.7 mg/mL in “physchem [3]” (citrate buffer 0.5 m, pH 4.1). Moreover, the solubility was 3.3 mg/mL in “physchem [3]” (citrate buffer 0.5 m, pH 4.9); 31.6 mg/mL in “physchem [3]” (citrate buffer 0.5 m, pH 5.3); 46.3 mg/mL in “physchem [3]” (citrate buffer 0.5 m, pH 5.6); 47 mg/mL in the data set “physchem [3]” (citrate buffer 0.5 m, pH 5.8).
